Where two headings read alike, the source gives them in different places.
Assays:
[1] = biological target: T1, CDK5/GST-p25 (Homo sapiens, UniProt Q00535); test: Inhibition of CDK5/GST-p25 kinase activity (ELISA with time-resolved fluorescence readout); assay type: biochemical
T1 construct: The final construct, encoding for full-length human CDK5; made in house; host or cells: Sf21 insect cells (baculovirus co-infection)
Method: Two recombinant baculoviral constructs were created, one encoding for human CDK5 and the other encoding for human p25 with an amino-terminal glutathione-S-transferase (GST) tag. PCR amplification of full-length CDK5 was performed utilizing human brain cDNA as a template and Pfu Turbo polymerase (Strategene). The PCR product from this reaction was subcloned into the baculoviral expression vector pFASTBAC1 (Gibco/BRL). The final construct, encoding for full-length human CDK5 (base pairs 25-903 of GenBank Accession #NM_004935), is 292 amino acids long with a predicted MW of 33.3 kDa.
For p25, the active truncated form of p35, amino acids 108-307 were PCR-amplified from human fetal brain cDNA (Clontech QUICK-Clone cDNA) using the Advantage 2 PCR system (Clontech). The PCR product was subcloned into the baculoviral transfer vector pFBGSTP (an engineered derivative of the baculoviral transfer vector pFASTBAC1). The final baculoviral construct encodes for base pairs 419-1021 of GenBank Accession #NM_003885, with an amino-terminal GST tag. The expressed GST-p25 is 444 amino acids long with a predicted MW of 50.3 kDa.
The CDK5/GST-p25 complex was generated by coexpression. Sf21 cells were cultured in TNM-FHS media at a density of 1.5×10^6 cells/mL and infected with each recombinant virus at MOI values of 5 (for CDK5) and 10 (for GST-p25). The cells were harvested 40 h after infection. For purification, the 100,000×g supernatant solution was used. Expression was confirmed by running samples on SDS-PAGE, followed by immunoblot analysis utilizing antibodies against CDK5 (anti-CDK5 (268-283); Calbiochem #219449) and p35 (Santa Cruz #sc820). The CDK5/GST-p25 complex was purified by glutathione affinity chromatography.
Compounds were tested for their ability to inhibit the kinase activity of recombinant baculoviral CDK5/GST-p25 using an enzyme-linked immunosorbent assay (ELISA) with time-resolved fluorescence (TRF) readout. Briefly, each 384-well FluoroNunc Maxisorp plate (Cat # 460372) plate was coated with 50 μl/well of 50 μg/ml substrate solution (recombinant GST-Rb(773-928)) in Tris-buffered saline (TBS). The CDK5/GST-p25 assay mixture (total volume=50 μl/well) consisting of 20 mM HEPES (pH 7.2), 10 μM ATP, 10 mM MgCl2, 5 mM EGTA, 25 mM β-glycerophosphate, 0.05% BSA, 2.5% DMSO, and various concentrations of test compound were then added to the assay plate. Enzyme (2 ng/ml CDK5/GST-p25) was added and the reaction was allowed to proceed at 37° C. for 20 minutes. Detection of the phosphorylated product was performed by adding 50 μl/well of phospho-Rb (Ser-780) antibody (Cell Signaling # 9307) diluted 1:10,000 in antibody dilution buffer (0.1% BSA in TBST). After 1-hour incubation at 37° C., 50 μl/well of Eu-Nl labelled anti-rabbit antibody (Wallac # AD0105; 1:50,000 in antibody dilution buffer) was added. Incubation at 37° C. then proceeded for 1 hour, followed by addition of 50 μl enhancement solution (Wallac #1244-105). The plate was gently agitated and after a few minutes, the fluorescence of the resulting solution was measured using a Multilabel Reader (Victor2 Model # 1420-018 or Envision Model # 2100). Inhibition data were analyzed using ActivityBase and IC50 curves were generated using XLFit 3.0.5.

[2] = biological target: T2, His6-GSK-3β (Homo sapiens, UniProt P49841); test: Inhibition of His6-GSK-3β kinase activity (ELISA-based format, time-resolved fluorescence readout); assay type: biochemical; settings: read-out: GSK3β IC50
T2 construct: made in house; host or cells: Sf21 insect cells (baculovirus)
T2 sequence (P49841 2-419): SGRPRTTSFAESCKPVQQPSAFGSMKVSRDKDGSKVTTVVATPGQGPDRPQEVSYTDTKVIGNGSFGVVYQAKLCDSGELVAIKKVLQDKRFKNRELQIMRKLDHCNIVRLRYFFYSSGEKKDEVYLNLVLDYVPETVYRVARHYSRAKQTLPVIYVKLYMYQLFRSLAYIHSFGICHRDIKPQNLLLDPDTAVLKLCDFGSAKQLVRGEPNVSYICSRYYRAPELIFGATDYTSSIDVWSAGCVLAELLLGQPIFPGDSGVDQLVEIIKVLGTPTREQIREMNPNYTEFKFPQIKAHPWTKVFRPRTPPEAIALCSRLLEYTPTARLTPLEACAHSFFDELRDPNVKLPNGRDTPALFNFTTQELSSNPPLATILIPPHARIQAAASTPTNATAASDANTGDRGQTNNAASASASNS
Excerpt: Full-length GSK-3β was amplified from a sequence-verified I.M.A.G.E. EST acquired from Research Genetics (Invitrogen, Clone ID# CSODB003YJ02). The final sequence-verified cDNA contained the coding region for a NH2-terminal tag, which encoded for 6 histidines and then eight vector-encoded amino acids prior to the start of GSK3β, which contained by # 43-1342 of Genbank Accession # NM_002093, encoding amino acids #2-419. The predicted molecular weight of the tagged, 435 amino acid, full-length protein is 48.5 kDa. The major structural element of this protein is the kinase domain, which is from amino acids #56-340. Recombinant baculoviral DNA was prepared by transposition in E. coli (BAC-TO-BAC system: Invitrogen) and the virus generated and amplified in Sf21 insect cells. A suspension culture of Sf21 cells was infected at an MOI of 0.7 and cell density of 1.5×10^6 cells/mL in Excell 420 serum-free media (JRH BioScience) and harvested 65 h after infection. The 100,000×g supernatant solution was used for purification. Expression was confirmed by running samples on SDS-PAGE, followed by immunoblot analysis utilizing both a Penta-HIS antibody (Qiagen #34660) and a GSK-3α/GSK-3β antibody (Calbiochem #368662, data not shown). The His6-tagged protein was purified to in one step by Ni-NTA affinity chromatography.
Inhibitory effects of compounds on baculoviral GSK-3β kinase activity were evaluated using an ELISA-based format in a 384-well FluoroNunc Maxisorp plate (Cat # 460372) with a time-resolved fluorescence readout. Briefly, each plate was coated with 50 μl/well of 20 μg/ml substrate solution (recombinant GST-Rb) in Tris-buffered saline (TBS). The GSK-3β assay mixture (total volume=50 μl/well) consisting of 50 mM HEPES (pH 7.2), 20 μM ATP, 10 mM MgCl2, 5 mM EGTA, 25 mM β-glycerophosphate, 0.05% BSA, 2.5% DMSO, and various concentrations of test compound were then added to the assay plate. Enzyme (200 ng/ml His6-GSK-3β) was then added and the reaction was allowed to proceed at 37° C. for 30 minutes. Detection of the phosphorylated product was performed by adding 50 μl/well of phospho-Rb (Ser-780) antibody (Cell Signaling # 9307) diluted 1:10,000 in antibody dilution buffer (0.1% BSA in TBST). After 1-hour incubation at 37° C., 50 μl/well of Eu-N1 labelled anti-rabbit antibody (Wallac # AD0105; 1:50,000 in antibody dilution buffer) was added. Incubation at 37° C. then proceeded for 1 hour, followed by addition of 50 μl enhancement solution (Wallac #1244-105). The plate was gently agitated and after a few minutes, the fluorescence of the resulting solution was measured using a Multilabel Reader (Victor2 Model # 1420-018 or Envision Model 2100). Inhibition data were analyzed using ActivityBase and IC50 curves were generated using XLFit 3.0.5.

T1 sequence (Q00535 whole entry): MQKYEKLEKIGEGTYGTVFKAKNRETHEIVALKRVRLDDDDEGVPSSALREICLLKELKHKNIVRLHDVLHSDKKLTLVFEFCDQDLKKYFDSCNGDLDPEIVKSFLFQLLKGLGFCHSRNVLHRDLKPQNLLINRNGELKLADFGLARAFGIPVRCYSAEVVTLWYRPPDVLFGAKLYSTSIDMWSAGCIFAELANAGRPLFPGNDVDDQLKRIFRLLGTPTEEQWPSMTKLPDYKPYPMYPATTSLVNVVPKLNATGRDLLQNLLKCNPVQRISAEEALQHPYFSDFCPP
T1 sequence (Q15078 108-307 partner limits assumed): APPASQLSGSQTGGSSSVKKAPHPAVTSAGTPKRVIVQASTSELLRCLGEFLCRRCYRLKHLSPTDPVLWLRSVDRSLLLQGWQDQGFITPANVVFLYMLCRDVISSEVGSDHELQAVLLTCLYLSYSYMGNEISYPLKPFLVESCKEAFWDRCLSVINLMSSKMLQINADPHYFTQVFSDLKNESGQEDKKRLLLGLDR

Structure (SMILES) | IC50 ([1]; class symbols) | IC50 ([2]; class symbols) | IC50 ([1]; numeric bounds) | IC50 ([2]; numeric bounds)
N#Cc1ccc2c(c1)C(c1nc(NCc3ccccn3)nc3c1CCC3)C(=O)N2 (stereo not drawn) [Example 349, 2-Oxo-3-{2-[(pyridin-2-ylmethyl)-amino]-6,7-dihydro-5H-cyclopentapyrimidin-4-yl}-2,3-dihydro-1H-indole-5-carbonitrile] | < 300 nM | 300 to 3000 nM | – | –
CCCOCCNc1nc2c(c(C3C(=O)Nc4ccc(Br)cc43)n1)CCC2 (stereo not drawn) [Example 333, 5-Bromo-3-[2-(2-propoxy-ethylamino)-6,7-dihydro-5H-cyclopentapyrimidin-4-yl]-1,3-dihydro-indol-2-one] | > 10000 nM | > 10000 nM | – | –
N#Cc1ccc2c(c1)C(c1nc(NCc3cccnc3)nc3c1CCC3)C(=O)N2 (stereo not drawn) [Example 348, 2-Oxo-3-{2-[(pyridin-3-ylmethyl)-amino]-6,7-dihydro-5H-cyclopentapyrimidin-4-yl}-2,3-dihydro-1H-indole-5-carbonitrile] | < 300 nM | 300 to 3000 nM | – | –
CCCCN1CCC(CNc2nc(C3C(=O)Nc4ccc(Cl)cc43)c3cn(C4CCCC4)nc3n2)CC1 (stereo not drawn) [Example 275, 3-{6-[(1-Butyl-piperidin-4-ylmethyl)-amino]-2-cyclopentyl-2H-pyrazolo[3,4-d]pyrimidin-4-yl}-5-chloro-1,3-dihydro-indol-2-one] | > 10000 nM | < 300 nM | – | –
CNc1nc(C2C(=O)Nc3ccc(C#N)cc32)c2cn(C3CCCC3)nc2n1 (stereo not drawn) [Example 115, 3-(2-cyclopentyl-6-methylamino-2H-pyrazolo[3,4-d]pyrimidin-4-yl)-2-oxo-2,3-dihydro-1H-indole-5-carbonitrile] | < 300 nM | < 300 nM | – | –
O=C1Nc2ccc(F)cc2C1c1nc(NCc2ccncc2)nc2c1CCC2 (stereo not drawn) [Example 320, 5-Fluoro-3-{2-[(pyridin-4-ylmethyl)-amino]-6,7-dihydro-5H-cyclopentapyrimidin-4-yl}-1,3-dihydro-indol-2-one] | – | – | > 3000 nM | > 3000 nM
CN(C)CCN(C)c1nc(C2C(=O)Nc3ccc(Cl)cc32)c2cn(C3CCCC3)nc2n1 (stereo not drawn) [Example 140, 5-Chloro-3-{2-cyclopentyl-6-[(2-dimethylamino-ethyl)-methyl-amino]-2H-pyrazolo[3,4-d]pyrimidin-4-yl}-1,3-dihydro-indol-2-one] | > 10000 nM | < 300 nM | – | –
CCCn1cc2c(C3C(=O)Nc4ccc(C)cc43)nc(NCCCOC)nc2n1 (stereo not drawn) [Example 310, 3-[6-(3-Methoxy-propylamino)-2-propyl-2H-pyrazolo[3,4-d]pryrimidin-4-yl]-5-methyl-1,3-dihydro-indol-2-one] | 300 to 3000 nM | 300 to 3000 nM | – | –
N#Cc1ccc2c(c1)C(c1nc(NCCCN3CCOCC3)nc3nn(C4CCCC4)cc13)C(=O)N2 (stereo not drawn) [Example 139, 3-[2-cyclopentyl-6-(3-morpholin-4-yl-propylamino)-2H-pyrazolo[3,4-d]pyrimidin-4-yl]-2-oxo-2,3-dihydro-1H-indole-5-carbonitrile] | < 300 nM | < 300 nM | – | –
CN1CCN(c2nc(C3C(=O)Nc4ccc(C#N)cc43)c3cn(C4CCCC4)nc3n2)CC1 (stereo not drawn) [Example 117, 3-(2-cyclopentyl-6-(4-methyl-piperazin-1-yl)-2H-pyrazolo[3,4-d]pyrimidin-4-yl)-2-oxo-2,3-dihydro-1H-indole-5-carbonitrile] | 3000 to 10000 nM | < 300 nM | – | –
N#Cc1ccc2c(c1)C(c1nc(N3CCN(CCc4cccs4)CC3)nc3nn(C4CCCC4)cc13)C(=O)N2 (stereo not drawn) [Example 130, 3-{2-cyclopentyl-6-[4-(2-thiophen-2-yl-ethyl)-piperazin-1-yl]-2H-pyrazolo[3,4-d]pyrimidin-4-yl}-2-oxo-2,3-dihydro-1H-indole-5-carbonitrile] | > 10000 nM | < 300 nM | – | –
CCCn1cc2c(C3C(=O)Nc4ccc(Br)cc43)nc(NC[C@H]3CCCO3)nc2n1 (stereo partly drawn) [Example 366, 5-Bromo-3-(2-propyl-6-{[(R)-1-(tetrahydro-furan-2-yl)methyl]-amino}-2H-pyrazolo[3,4-d]pyrimidin-4-yl)-1,3-dihydro-indol-2-one] | < 300 nM | < 300 nM | – | –
O=C1Nc2ccc([N+](=O)[O-])cc2C1c1ncnc2nn(C3CCCC3)cc12 (stereo not drawn) [Example 33, 3-(2-Cyclopentyl-2H-pyrazolo[3,4-d]pyrimidin-4-yl)-5-nitro-1,3-dihydro-indol-2-one] | < 300 nM | < 300 nM | – | –
Cn1cc2c(C3C(=O)Nc4ccc(Cl)cc43)ncnc2n1 (stereo not drawn) [Example 83, 5-Chloro-3-(2-methyl-2H-pyrazolo[3,4-d]pyrimidin-4-yl)-1,3-dihydro-indol-2-one] | < 300 nM | 300 to 3000 nM | – | –
Cn1cc2c(C3C(=O)Nc4ccc(Br)cc43)nc(NCc3ccncc3)nc2n1 (stereo not drawn) [Example 302, 5-Bromo-3-{2-methyl-6-[(pyridin-4-ylmethyl)-amino]-2H-pyrazolo[3,4-d]pyrimidin-4-yl}-1,3-dihydro-indol-2-one] | < 300 nM | < 300 nM | – | –
CN(C)CCNc1nc2c(c(C3C(=O)Nc4ccc(Cl)cc43)n1)CCC2 (stereo not drawn) [Example 323, 5-Chloro-3-[2-(2-dimethylamino-ethylamino)-6,7-dihydro-5H-cyclopentapyrimidin-4-yl]-1,3-dihydro-indol-2-one] | > 10000 nM | > 10000 nM | – | –
CCCCNc1nc(C2C(=O)Nc3ccc(C#N)cc32)c2cn(C3CCCC3)nc2n1 (stereo not drawn) [Example 116, 3-(6-butylamino-2-cyclopentyl-2H-pyrazolo [3,4-d]pyrimidin-4-yl)-2-oxo-2,3-dihydro-1H-indole-5-carbonitrile] | – | < 300 nM | – | –

— patent US8354414B2, “Substituted bicyclic pyrimidines” (Cephalon, Inc, priority 2006, dated 2013)
